# Assay results: patent publication US20200155555A1, “VITAMIN RECEPTOR DRUG DELIVERY CONJUGATES FOR TREATING INFLAMMATION” (Endocyte, Inc., priority 2007, published 2020)
# Several values for one entry are separate records, joined by “and”; a condition that tells them apart may be missing. Equal values may be shown once.
# Columns and labels:
# [1] = target: folate-receptor-beta positive CHO-FR-β cells (Homo sapiens, UniProt P14207); conditions: displacement of 3H-folic acid
# [2] = Plasma pharmacokinetics after a single s.c. dose of EC0746 or aminopterin
# Procedure: Female Lewis rats with rounded tip jugular vein catheters (Harlan) were fed regular rodent diet and used in this study. The animals were given a single subcutaneous dose of EC0746 at 500 nmol/kg. Whole blood samples (300 μl) were collected from the animals at the following time points: 1 min, 10 min, 30 min, 1 h, 2 h, 3 h, 4 h, and 8 h after injection. The blood samples were placed into anti-coagulant tubes containing 1.7 mg/mL of K3-EDTA and 0.35 mg/mL of N-Maleoyl-beta-alanine (0.35 mg/mL). Plasma samples were obtained by centrifugation for 3 min at ˜2,000 g and stored at −80° C. The amount of EC0746 and its released base drugs (EC0470 & aminopterin) were determined by HPLC using the EC0746 injection solution as the standard (see FIG. 14). […] A similar method was used to determine the plasma pharmacokinetics of aminopterin (see FIG. 15).
# Thus, the plasma concentrations of EC0746 and two primary metabolites, AMT and AMT hydrazide, were determined by LC/MS/MS after a single subcutaneous EC0746 administration. […] For comparison, the pharmacokinetics of subcutaneously dosed AMT (500 nmol/kg) was also examined (FIG. 33B).
# RAW264.7 cells = assay: XTT cell viability / proliferation assay; format: cell-based, murine
# Procedure: After 2 h incubation, the drug-containing media were replaced and the cells were allowed to incubate further for 70 h. Four hours prior to the end of incubation, LPS was added to the treated cells at a final concentration of 100 ng/mL. 100 μL of the culture supernatants were collected for TNF-α analysis using a commercial ELISA kit.
# RAW264.7 cells in 96-well plates were treated with vehicle (culture medium) or 10-fold serial dilutions of EC0932 without or with 100-fold excess free folate. The drug-containing medium was replaced after 2 h treatment and the cells were allowed to incubate further in standard medium for 70 h. Four hours prior to the end of incubation, LPS was added to the treated cells at a final concentration of 100 ng/mL. […] The cell viability was assessed by adding XTT (2,3-bis(2-methoxy-4-nitro-5-sulfo-phenyl)-2H-tetrazolium-5-carboxanilide) to the remaining medium for an additional 4 h following the manufacturer's instructions (Roche Applied Science, Indianapolis, Ind.).
# At 4 h before the end of incubation, LPS (100 ng/ml) was added to the culture medium to stimulate cytokine production.
# [3] = target: folate receptors (FR-α) of KB cells (Homo sapiens, UniProt P15328); conditions: competitive binding with 3H-folic acid, FR-α positive KB cells
# [4] = Maximum tolerated dose (MTD) in healthy folate-deficient rats; format: in vivo
# Procedure: Healthy rats were administered a subcutaneous injection of the indicated dose of aminopterin or EC0746 biweekly for 2 weeks; control animals, no treatment, 100 nmole/kg aminopterin, 50 nmole/kg aminopterin, 500 nmole/kg EC0746, or 2000 nmole/kg EC0746. The animals were weighed daily. See FIG. 16A, B. A dose of 0.1 μmol/kg of aminopterin in folate deficient rats is above the MTD; therefore, the projected MTD of EC0746 would be <0.5 μmol/kg based solely on ˜20% free drug release shown in the previous Example. However, the MTD of EC0746 is actually 2.0 μmol/kg, which is equivalent to 0.4 μmol/kg, or—8× higher than the MTD for free aminopterin. On a molar basis for total aminopterin, the MTD is 40× higher. The therapeutic index (MTD for healthy animals/ED50 for treatment of adjuvant-induced arthristis in female Lewis rats) for EC746 is about 9.5 (2000/210).
# Since the toxicity of antifolates can be easily masked by rodent diets enriched with folate, healthy rats on a folate-deficient diet (Harlan) were used to determine the maximum-tolerated-dose levels (MTD) of EC0746, AMT and MTX. The animals were given biweekly injections of EC0746, AMT, and MTX for two weeks. The MTD dose was defined as the dose that had caused at least 13-14% weight loss combined with clinical signs of stress and at least one animal in the >MTD dose group needed to be euthanized. Standard hematologic and blood chemistry parameters were examined as needed along with histopathology. The MTDs of EC0746, MTX and AMT were determined to be 2000, 1000, and 50 nmol/kg, respectively. At above the MTD dose level, the main toxicities of EC0746 were similar to those of AMT and MTX, including manifested gastrointestinal distress (diarrhea), swollen muzzle, immunosuppression (bone marrow, thymus), low white-blood-cell count, low platelet count, and infections. […] Overall, EC0746 was approximately 40-fold less toxic than AMT and 2-fold less toxic than MTX on an equimolar basis in these folate-deficient animals; however, its toxicity profile at above MTD levels was not dissimilar from that of AMT and MTX.
# [5] = system: rats with adjuvant-induced arthritis (AIA); assay: Adjuvant-induced arthritis (AIA) model; conditions: for Splenomagly (% increase in spleen weight relative to healthy rats) / % Inhibition in paw edema / % Weight loss: AIA rats; for % Weight loss: Day 24 relative to first day of treatment
# Procedure: Female Lewis rats were fed a folate-deficient diet (Harlan Teklad, Indianapolis, Ind.) for 9-10 days prior to arthritis induction. The adjuvant-induced arthritis (AIA) was induced by intradermal inoculation (at the base of tail) of 0.5 mg of heat-killed Mycobacteria butyricum (BD Diagnostic Systems, Sparks, Md.) in 100 μL light mineral oil (Sigma). Ten days after arthritis induction, paw edema in rats was assessed using a modified arthritis scoring system: 0=no arthritis; 1=swelling in one type of joint; 2=swelling in two types of joint; 3=swelling in three types of joint; 4=swelling of the entire paw. A total score for each rat is calculated by summarizing the scores for each of the four paws, giving a maximum score of 16 for each rat. On Day 10 post arthritis induction, rats with a total arthritis score of ≥2 were removed from the study and the remaining rats were distributed evenly across the control and treatment groups (n=5 for all groups except that n=2-3 for healthy controls). All treatments started on Day 10 unless mentioned otherwise. […]
# Rats with adjuvant arthritis were treated subcutaneously with EC0932 (250 nmol/kg) in the absence or presence of 500-fold excess of EC0923 (125 μmol/kg) on days 10, 13, 17, and 20 post arthritis induction. The animals in the healthy and arthritis control groups were left untreated. The arthritis scores and animal body weights were recorded three times a week (see FIG. 19A, B). At the completion of study (day 24), the rats were euthanized by CO2 asphyxiation and processed for paw and spleen weights (see FIG. 20A, B).
# The rat adjuvant induced arthritis (AIA) model resembles the characteristics of RA in humans and has been widely used to study the impact of novel anti-inflammatory agents.
# [6] = single sc dose of EC0746, 500 nmole/kg, rats
# [7] = etanercept s.c. 10 mg/kg once every 3 days
# Chain of folate receptors (FR-α) of KB cells (P15328 25-234): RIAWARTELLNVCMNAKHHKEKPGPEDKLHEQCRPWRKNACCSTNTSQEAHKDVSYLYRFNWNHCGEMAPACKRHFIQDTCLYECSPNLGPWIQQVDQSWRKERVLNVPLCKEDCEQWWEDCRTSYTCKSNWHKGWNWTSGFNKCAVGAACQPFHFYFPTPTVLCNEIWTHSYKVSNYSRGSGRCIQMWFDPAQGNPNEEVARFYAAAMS
# Chain of folate-receptor-beta positive CHO-FR-β cells (P14207 17-230): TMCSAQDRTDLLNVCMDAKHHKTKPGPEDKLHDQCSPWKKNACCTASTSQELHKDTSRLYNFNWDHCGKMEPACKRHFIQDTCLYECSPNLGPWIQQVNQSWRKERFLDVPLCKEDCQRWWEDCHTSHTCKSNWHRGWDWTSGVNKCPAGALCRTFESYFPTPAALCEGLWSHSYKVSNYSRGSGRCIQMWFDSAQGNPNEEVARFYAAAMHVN
compound,measurement,setting,value
N=c1[nH]c(N)nc2ncc(CNc3ccc(C(=O)N[C@@H](CCC(=O)NNC(=O)OCCSSC[C@H](NC(=O)[C@H](CCC(=O)NC[C@H](O)[C@@H](O)[C@H](O)[C@H](O)CO)NC(=O)[C@H](CCC(=O)O)NC(=O)[C@H](CCC(=O)NC[C@H](O)[C@@H](O)[C@H](O)[C@H](O)CO)NC(=O)[C@H](CCC(=O)O)NC(=O)[C@H](CCC(=O)NC[C@H](O)[C@@H](O)[C@H](O)[C@H](O)CO)NC(=O)CC[C@H](NC(=O)c4ccc(NCc5cnc6nc(N)[nH]c(=O)c6n5)cc4)C(=O)O)C(=O)O)C(=O)O)cc3)nc12 [EC0746],Relative affinity to folate receptors (folic acid set as 1),[1],0.27
same,bioavailability after subcutaneous administration,[2]; rats,bioavailable after subcutaneous administration
same,elimination half-life of EC0746,"[2]; single sc dose of EC0746, 500 nmol/kg, rats",~35 min
same,Area Under Curve for free drug (aminopterin+aminopterin hydrazide),[2]; [6],7.3 nmol·min/mL
same,Cmax for free drug (aminopterin+aminopterin hydrazide),[2]; [6],34 nM
same,Cmax for free drug as % of the total dose,[2]; [6],9.6%
same,time of Cmax for free drug (aminopterin+aminopterin hydrazide),[2]; [6],60 min
same,EC50,"RAW264.7 cells; 2 h treatment, then 70-72 h in drug-free medium, read-out: EC50 (ED50), viability/proliferation of RAW264.7 cells, XTT assay",0.3 nM and ~0.3 nM
same,Relative affinity to folate receptors (folic acid set as 1),[3],0.5
same,therapeutic index (MTD for healthy animals/ED50 in AIA),[4]; 2000/210,about 9.5
same,"MTD relative to MTD for free aminopterin, based on ~20% free drug release (0.4 μmol/kg equivalent)","[4]; rat, in vivo",8 ×
same,MTD relative to free aminopterin on a molar basis for total aminopterin,"[4]; rat, in vivo",40 ×
same,gastrointestinal-associated toxicities at MTD dose,[4]; rats,showed less gastrointestinal-associated toxicities than AMT and MTX
CN(Cc1cnc2nc(N)nc(N)c2n1)c1ccc(C(=O)N[C@@H](CCC(=O)O)C(=O)O)cc1 [methotrexate],Splenomagly (% increase in spleen weight relative to healthy rats),"[5]; oral, 250 nmol/kg biw",42 ± 17%
same,% Inhibition in paw edema,"[5]; oral, 250 nmol/kg biw, Day 24",70 ± 5%
same,% Weight loss,"[5]; oral, 250 nmol/kg biw",−14 ± 2%
same,% Weight loss,"[5]; oral, 1650 nmol/kg qw",−10 ± 2%
same,% Inhibition in paw edema,"[5]; oral, 1650 nmol/kg qw, calculated based on arthritis scores on Day 24",47 ± 10 %
same,Splenomagly (% increase in spleen weight relative to healthy rats),"[5]; sc, 250 nmol/kg biw",24 ± 3%
same,% Inhibition in paw edema,"[5]; sc, 250 nmol/kg biw, Day 24",78 ± 10%
same,% Weight loss,"[5]; sc, 250 nmol/kg biw",−2 ± 4%
same,Splenomagly (% increase in spleen weight relative to healthy rats),"[5]; sc, 500 nmol/kg biw",20 ± 4%
same,% Inhibition in paw edema,"[5]; sc, 500 nmol/kg biw, Day 24",88 ± 7%
same,% Weight loss,"[5]; sc, 500 nmol/kg biw",−2 ± 7%
same,decrease in dorsal to ventral paw thickness,[5]; oral MTX 250 nmol/kg biweekly,63%
same,decrease in summed histological score,[5]; oral MTX 250 nmol/kg biweekly,73%
same,reductions in all scored histology parameters vs untreated controls,[5]; oral MTX 250 nmol/kg biweekly,66-84%
same,blocking of anti-arthritic activity by folate competitor,[5]; s.c. MTX 250 nmol/kg/dose with 500-fold excess EC0923,not significantly blocked by excess EC0923
same,effect on development and severity of arthritis,"[5]; s.c. MTX 250 nmol/kg/dose, 2 weeks",significantly improved the development and severity of arthritis
same,reduction of local (paw) and systemic (spleen) inflammation,"[5]; sc 300 nmol/kg on days 10, 13, 17, 20",similarly active in reducing local (paw) and systemic (spleen) inflammation
same,Relative affinity to folate receptors (folic acid set as 1),[1],0.005
same,Relative affinity to folate receptors (folic acid set as 1),[3],0.018
Nc1nc2ncc(CNc3ccc(C(=O)N[C@@H](CCC(=O)N[C@H](CC(=O)O)C(=O)N[C@H](CC(=O)O)C(=O)O)C(=O)O)cc3)nc2c(=O)[nH]1 [EC0923],effect on development or severity of AIA,"[5]; EC0923 alone, 125 μmol/kg/dose biweekly 2 weeks",did not have any impact on the development or severity of the disease
same,dorsal to ventral paw thickness,"[5]; EC0923 alone, 125 μmol/kg/dose biweekly, arthritic control ~9.8, healthy ~5.8",~9.4 mm
same,mean sum of histology scores (maximum 20),"[5]; EC0923 alone, 125 μmol/kg/dose biweekly, arthritic control ~15.3",14.2
same,Relative affinity to folate receptors (folic acid set as 1),[3],0.84
etanercept,Splenomagly (% increase in spleen weight relative to healthy rats),"[5]; sc, 10 mg/kg q3d",42 ± 7%
same,% Inhibition in paw edema,"[5]; sc, 10 mg/kg q3d, Day 24",46 ± 9%
same,% Weight loss,"[5]; sc, 10 mg/kg q3d",−15 ± 2%
same,decrease in dorsal to ventral paw thickness,[5]; [7],40%
same,decrease in summed histological score,[5]; [7],43%
same,reduction in bone resorption (histology),[5]; [7],55%
same,reduction in inflammation (histology),[5]; [7],42%
Nc1nc(N)c2nc(CNc3ccc(C(=O)N[C@@H](CCC(=O)O)C(=O)O)cc3)cnc2n1 [aminopterin],lethality to AIA rats,"[5]; AMT mixed with free folic acid (1:1), 500 nmol/kg/dose, biweekly",100%
same,delay of peak plasma appearance from the EC0746 Cmax,"[2]; rat, in vivo, sc, 500 nmol/kg",30 min
same,MTD at 2 weeks,"[4]; rat, in vivo, folate deficient rats, sc biweekly for 2 weeks",< 0.1 µmol/kg
"NNC(=O)CC[C@H](NC(=O)c1ccc(NCc2cnc3nc(N)nc(N)c3n2)cc1)C(=O)O [EC0470, aminopterin gamma-hydrazide]",delay of peak plasma appearance from the EC0746 Cmax,"[2]; EC0746-dosed rats, sc 500 nmol/kg",30 min
same,Tmax of released base drug in plasma,"[2]; after single sc dose of EC0746, 500 nmol/kg, rats",~60 min
same,potency on cell proliferation and LPS-stimulated TNF-α production,RAW264.7 cells; 72 h incubations of RAW264.7 macrophages,equally potent
